Among the data in ChEMBL document CHEMBL5352447, “Development of [1,2]oxazoloisoindoles tubulin polymerization inhibitors: Further chemical modifications and potential therapeutic effects against lymphomas” (Eur J Med Chem, 2022) are inhibition, IC50 and Activity values, retold here.

For one series, the target named is Tubulin (Homo sapiens) (UniProt P68371+Q9H4B7+P0DPH7+P68366+Q13509+Q71U36+P04350+Q3ZCM7+P07437+P68363+Q9BQE3+Q6PEY2+Q13885+Q9BVA1+Q9BUF5). Nature of the series: Inhibition of [3H]Colchicine binding to tubulin (unknown origin) at 5 uM relative to control. The format is protein-complex assay.
For another series, the target named is Tubulin. Nature of the series: Inhibition of tubulin assembly (unknown origin). The series is classed as protein-complex assay, Homo sapiens.
The test system of another series is MCF7. Briefly: Cytotoxicity against human MCF7 cells assessed as cell growth inhibition. The format is functional, cell-based.
Series [1] relates to SU-DHL10. Briefly: Antiproliferative activity against human SU-DHL-10 cells assessed as proliferating cells at 1 uM incubated for 72 hrs by MTT assay relative to control. The format is functional. Background: Tetrazolium assays rely on reduction of a dye to a coloured formazan, in cell work by metabolically active cells.
A short description of series [2]: Antiproliferative activity against human HBL1 cells assessed as proliferating cells at 1 uM incubated for 72 hrs by MTT assay relative to control. The format is functional.
Series [3] can be described thus: Antiproliferative activity against human MINO cells assessed as inhibition of cell proliferation incubated for 72 hrs by MTT assay. The series is classed as functional, cell-based.
The nature of series [4]: Antiproliferative activity against human MINO cells assessed as proliferating cells at 1 uM incubated for 72 hrs by MTT assay relative to control. The format is functional.
Series [5] concerns SU-DHL10. Nature of the series: Antiproliferative activity against human SU-DHL-10 cells assessed as inhibition of cell proliferation incubated for 72 hrs by MTT assay. The series is classed as functional, cell-based. The note with it: SU-DHL10, 72 h.
In series [6] the test system is VL51. Nature of the series: Antiproliferative activity against human VL51 cells assessed as inhibition of cell proliferation incubated for 72 hrs by MTT assay. The format is functional, cell-based. The settings on record: VL51, 72 h.
In series [7] the test system is VL51. Nature of the series: Antiproliferative activity against human VL51 cells assessed as proliferating cells at 1 uM incubated for 72 hrs by MTT assay relative to control. The series is classed as functional.
Series [8] is described as follows: Antiproliferative activity against human HBL1 cells assessed as inhibition of cell proliferation incubated for 72 hrs by MTT assay. The series is classed as functional, cell-based. The note with it: HBL1, 72 h.
Series [9] deals with MINO. Briefly: Upregulation of PLK1 in human MINO cells at 100 nM incubated for 8 to 24 hrs by RNA sequencing analysis. The settings on record: time 8-24 hrs. The series is classed as functional, cell-based.
Series [10] deals with MINO. Nature of the series: Induction of cell cycle arrest in human MINO cells assessed as accumulation at subG0 phase at early time point at 50 to 500 nM incubated upto 72 hrs by […]. The series is classed as functional. The note with it: dose 50-500 nM.
For series [11], the system named is MINO. Nature of the series: Induction of cell cycle arrest in human MINO cells assessed as accumulation at G2/M phase at 50 nM incubated for 24 to 72 hrs by […]. The series is classed as functional. The settings on record: time 24-72 hrs.
The subject of series [12] is MINO. Nature of the series: Upregulation of BIRC5 in human MINO cells at 100 nM incubated for 8 to 24 hrs by RNA sequencing analysis. The series is classed as functional, cell-based. The note with it: time 8-24 hrs.
The subject of series [13] is MINO. Nature of the series: Upregulation of CENPE in human MINO cells at 100 nM incubated for 8 to 24 hrs by RNA sequencing analysis. The format is functional, cell-based. The note with it: time 8-24 hrs.
Series [14] relates to VL51. Nature of the series: Induction of cell cycle arrest in human VL51 cells assessed as accumulation at G2/M phase at 50 nM incubated for 24 to 72 hrs by […]. The settings on record: time 24-72 hrs. The format is functional.
Series [15] deals with VL51. Nature of the series: Induction of apoptosis in human VL51 cells at 50 to 500 nM incubated for 24 to 72 hrs by annexin V-FITC/PI staining based analysis. The format is functional, cell-based. The settings on record: dose 50-500 nM, time 24-72 hrs.
Series [16] relates to MINO. Briefly: Upregulation of CCNB2 in human MINO cells at 100 nM incubated for 8 to 24 hrs by RNA sequencing analysis. The series is classed as functional, cell-based. The settings on record: time 8-24 hrs.
The test system of the next series is PBMC. Nature of the series: Induction of apoptosis in human PBMC cells at 500 nM incubated for 24 to 48 hrs by annexin V staining based analysis relative to control. The format is toxicity, cell-based. The settings on record: 0.5 µM, time 24-48 hrs.
Series [17] deals with VL51. Briefly: Induction of cell cycle arrest in human VL51 cells assessed as accumulation at subG0 phase at early time point at 50 to 500 nM incubated upto 72 hrs by […]. The settings on record: dose 50-500 nM. The series is classed as functional.
Series [18] relates to MINO. Briefly: Upregulation of CENPA in human MINO cells at 100 nM incubated for 8 to 24 hrs by RNA sequencing analysis. The format is functional, cell-based. The settings on record: time 8-24 hrs.
Series [19] concerns MINO. Nature of the series: Induction of apoptosis in human MINO cells at 50 to 500 nM incubated for 24 to 72 hrs by annexin V-FITC/PI staining based analysis. The format is functional, cell-based. The settings on record: dose 50-500 nM, time 24-72 hrs.
Series [20] has as its system MINO. Briefly: Upregulation of CCNB1 in human MINO cells at 100 nM incubated for 8 to 24 hrs by RNA sequencing analysis. The format is functional, cell-based. The settings on record: time 8-24 hrs.
For series [21], the system named is MINO. Nature of the series: Upregulation of AURKA in human MINO cells at 100 nM incubated for 8 to 24 hrs by RNA sequencing analysis. The series is classed as functional, cell-based. The note with it: time 8-24 hrs.

SMILES strings stand for the structures. Active and inactive are the calls of the source. The calls are words filed in the database; no cut-off is given here.

`c1ccc(Cn2cc3c(c2-c2ccccc2)CCc2cnoc2-3)cc1` registered an inhibition on Tubulin (Homo sapiens) of 21%. For the same compound, the results for the IC50 at Tubulin and in the series with MCF7 were 4600 nM and over 5000 nM, respectively.
Regarding `COc1ccc(Cn2cc3c(c2-c2ccccc2)CCc2c(CN4CCCC4)noc2-3)cc1`, the IC50 on Tubulin was 12000 nM; in the series on MCF7, over 5000 nM.
Consider `CCOC(=O)c1c2c(cn1Cc1ccc(OC)cc1)-c1oncc1CC2`, for which the values for the IC50 against Tubulin and in the series on MCF7 were 8000 nM and over 5000 nM, respectively.
On to `COc1cccc(Cn2cc3c(c2)-c2oncc2CC3)c1`, for which the Activity was 14% with SU-DHL10 [1], 37.9% in series [2], 8.9% in series [4] and 44.7% with VL51 [7]. Further, the IC50 in series [3] came to 700 nM; against Tubulin it was 5200 nM; in the series with SU-DHL10 [5] it was 800 nM; in the series on VL51 [6], 1000 nM; with MCF7, 550 nM; in [8], 700 nM. In addition, the inhibition on Tubulin (Homo sapiens) came out at 69%.
On to `COc1ccc(Cn2cc3c(c2-c2ccccc2)CCc2cnoc2-3)cc1N`, for which the Activity with SU-DHL10 [1] is on record as 13%; in series [2], 27.6%; in [4] it was 10.5%; in the series with VL51 [7], 37.6%. Moreover, the IC50 in series [3] stood at 230 nM; against Tubulin, 1700 nM; with SU-DHL10 [5], 260 nM; in the series with VL51 [6] it was 250 nM; in the series on MCF7 it was 370 nM; in series [8], 270 nM. Moreover, the inhibition at Tubulin (Homo sapiens) is 72%.
Turning to `COc1ccc(Cn2cc3c(c2-c2ccc(OC)cc2)CCc2cnoc2-3)cc1`, the Activity is listed as 47.4% with SU-DHL10 [1], 57.1% in series [2], 29.9% in series [4] and 49.4% in the series with VL51 [7]. For the same compound, the half-maximal inhibitory concentration (IC50) is 1100 nM in series [3]; 2000 nM against Tubulin; 1700 nM with SU-DHL10 [5]; 1100 nM with VL51 [6]; over 5000 nM in the series on MCF7; 1200 nM in series [8]. This compound also showed an inhibition on Tubulin (Homo sapiens) of 55%.
`COc1ccc(Cn2cc3c(c2-c2cc(OC)c(OC)c(OC)c2)CCc2cnoc2-3)cc1`: the Activity in the series on SU-DHL10 [1] came to 12.7%; in series [2], 30.7%; in series [4], 8.7%; in the series with VL51 [7], 37.9%. The IC50 is 370 nM in series [3]; 3200 nM against Tubulin; 500 nM with SU-DHL10 [5]; 270 nM with VL51 [6]; 600 nM with MCF7; 470 nM in series [8]. The compound also gave an inhibition on Tubulin (Homo sapiens) of 34%.
Regarding `COc1ccc(Cn2cc3c(c2-c2cc(OC)c(OC)c(OC)c2)CCc2cnoc2-3)cc1N`, the Activity in the series on SU-DHL10 [1] turned out to be 12%; in series [2] it was 12.9%; in series [4], 9.31%; with VL51 [7], 34.7%. Further, the IC50 in [3] was determined as 70 nM; at Tubulin it was 1700 nM; in the series on SU-DHL10 [5], 100 nM; in the series on VL51 [6], 100 nM; in the series on MCF7 it was 240 nM; in series [8], 90 nM. The same compound showed an inhibition on Tubulin (Homo sapiens) of 57%.
Regarding `COc1cc(Cn2cc3c(c2)-c2oncc2CC3)cc(OC)c1`, the Activity with SU-DHL10 [1] is listed as 30.5%; in [2], 7.1%; in [4], 0.8%; with VL51 [7] it was 38%; with PBMC it was 15%. Moreover, the outcome in the series with MINO [9], in the series on MINO [10], in the series with MINO [11], in the series on MINO [12], in the series with MINO [13] and in the series on VL51 [14] was Active. For the same compound, the result with VL51 [15], with MINO [16], in the series with VL51 [17], in the series with MINO [18], in the series on MINO [19] and in the series on MINO [20] was Active. Further, the outcome in the series with MINO [21] was Active. In addition, the IC50 in [3] is 20 nM; against Tubulin it was 2800 nM; with SU-DHL10 [5] it was 30 nM; in the series on VL51 [6], 40 nM; in the series on MCF7 it was 290 nM; in [8], 20 nM. The same compound showed an inhibition on Tubulin (Homo sapiens) of 88%.
As to `COc1cc(Cn2cc3c(c2)-c2oncc2CC3)cc(OC)c1OC`, the Activity turned out to be 13.8% in the series with SU-DHL10 [1]; 7.3% in series [2]; 8.6% in [4]; 28.1% in the series on VL51 [7]; 15% with PBMC. The outcome with MINO [10], in the series with MINO [11], with VL51 [14], with VL51 [15], in the series with VL51 [17] and with MINO [19] was Active. Further, the half-inhibitory concentration (IC50) in [3] came out at 70 nM; at Tubulin, 2300 nM; in the series on SU-DHL10 [5] it was 70 nM; in the series on VL51 [6], 120 nM; with MCF7, 210 nM; in series [8], 80 nM. The compound further registered an inhibition at Tubulin (Homo sapiens) of 80%.
For the compound `COc1ccc(/C=C\c2cc(OC)c(OC)c(OC)c2)cc1O` [COMBRETASTATIN A4], in the series on MCF7, the IC50 is 18 nM.
Take `COc1ccc(Cn2cc3c(c2-c2ccccc2)CCc2cnoc2-3)cc1OC`: at Tubulin (Homo sapiens), the inhibition stood at 34%. Also, the results for the IC50 on Tubulin and with MCF7 were 3400 nM and 4500 nM, respectively.
In the case of `COc1ccc(Cn2cc3c(c2-c2ccccc2)CCc2cnoc2-3)cc1`, the Activity is 13% with SU-DHL10 [1], 21.5% in series [2], 8.4% in series [4] and 40.9% with VL51 [7]. The concentration for half-maximal inhibition (IC50) stood at 230 nM in series [3]; 2100 nM against Tubulin; 280 nM in the series with SU-DHL10 [5]; 270 nM in the series with VL51 [6]; 380 nM in the series on MCF7; 250 nM in series [8]. Moreover, at Tubulin (Homo sapiens), the inhibition came to 77%.
`COc1ccc(Cn2cc3c(c2-c2ccccc2)CCc2cnoc2-3)cc1[N+](=O)[O-]` came in with an inhibition on Tubulin (Homo sapiens) of 55%. For the same compound, the IC50 at Tubulin was 1500 nM; in the series with MCF7, 340 nM.

A word on the inhibition: it is how much of the control response was suppressed. A lower inhibition goes with little suppression. For orientation: IC50 means the concentration that inhibits the measured activity by half.
